Assay results reported in US20250034139A1, “AMINE COMPOUNDS HAVING ANTI-INFLAMMATORY, ANTIFUNGAL, ANTIPARASITIC, AND ANTICANCER ACTIVITY” (PHARMA CINQ, LLC, priority 2013, published 2025).
≈ marks a conversion by molar mass, not a printed value.

Experiments:
THP-1 cells = experiment: Example D: LPS-triggered THP-1 cell death assay, acute/5-hour and chronic/48-hour; assay type: cell-based, Human; conditions: for Viable cell percent change, Chronic/48-hour, Mean: 10 ng/ml LPS, 0.1 μM test compound
Protocol: Compounds of the invention were tested at 0.1 μM versus AC in the LPS-triggered THP-1 cell death assay. Both acute/5-hour and chronic/48-hour phases of cell death were assessed. Compounds were screened in batches with DMSO as the negative control and AC as the high activity control.

[1] = tested on: Cryptococcus neoformans (serotype D); experiment: Example K: Cryptococcus neoformans (serotype D) growth inhibition; assay type: cell-based; conditions: Cryptococcus deneoformans, OD of 48 hour reading, 37° C., tested 4 to 60 μM, XLfit
Protocol: Cryptococcus neoformans (serotype D) were plated in 96 well plates with 144 μl/well of 8×10e5 CFU/ml in YM growth medium. Diluted compounds were then added to each well with concentration ranged from 4 to 60 μM as final concentration in duplicates. The plates were inoculated at 37° C. for total of 48 hours. Two readings of OD at 600 nm were measured after 30 and 48 hour treatments.
• 1. Pick a single colony of Cryptococcus from the YM agar plate using the inoculum loop and inoculate into a 125 ml flask containing 25 ml of YM growth medium. • 2. Incubate at 37° C. with shaking at 220 rpm for 24 hours with loosen lid to allow air in and facilitates growth. • 3. Examine an aliquot of the culture under a microscope for yeast cell morphology and lack of bacterial contamination. • 4. Dilute the overnight culture with YM medium at 1:100 dilution and count the number of cells as 1×10^6 cfu/ml. • 5. Make a final concentration of cells suspension at 8×10^5 cfu/ml in YM medium. • 6. Plate 144 μl/well of 8×10^5 cfu/ml cell suspension on 96-well plates. Part-II: Cryptococcus Growth Inhibition Testing with Compounds • 1. From 10 mM DMSO stock solutions, make serial dilutions of compounds to 0.1, 0.2, 0.3, 0.5, 1.0 and 1.5 mM solution. • 2. Add 6 ul each of diluted compound solutions per well in duplicates. The final concentrations were 0, 4, 8, 12, 20, 40 and 60 micromolar. • 3. Incubated all plates at 37° C. overnight (30 hours) with 150 rpm shaking. • 4. Read absorbance at OD600 for each plate. • 5. Leave plates in 37° C. incubator for another day and read absorbance at OD600 again at 48 hours to ensure the inhibitory effect of the compounds. • 6. Calculated the % inhibition and IC50 of each compound against untreated cells.

[2] = tested on: 4T1 murine breast cancer cells; experiment: Example S: in vitro anticancer screen, 4T1 cells, Wst1; assay type: cell-based, mouse; conditions: Mus musculus, 4T1, 18 h, 18 hr, Wst1; for viability at 1 µM: read-out: 4T1 1 μM, percent of cancer cell survival relative to vehicle treated cells; for viability at 5 µM: read-out: 4T1 5 μM, percent of cancer cell survival relative to vehicle treated cells
Summary of the method: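 4T1 cells seeded at 1×10^4/well were exposed to compound at 1 μM or 5 μM for 18 hr after plating. Wst1 tetrazolium dye was then added for about 2 hr and absorbance read at 450 nm (reference 630 nm). Values are percent survival relative to vehicle-treated cells.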

[3] = tested on: PC3 human prostate cancer cells; experiment: Example S: in vitro anticancer screen, PC-3 cells, Wst1; assay type: cell-based; conditions: Homo sapiens, PC-3, approximately 20 hours, Wst1, read-out: PC-3, percent of cancer cell survival relative to vehicle treated cells
Summary of the method: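 PC-3 cells, 2×10^4 cells/well, exposed ~20 h to vehicle or compound at 0.4, 0.5 or 2.5 μM as specified per compound. Wst1 dye added for 2 h; absorbance 450 nm (reference 630 nm), triplicates. Values are percent cell survival versus vehicle-treated cells.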

[4] = tested on: PC-3 prostate cancer cells; experiment: Example T: sensitisation of PC-3 cells to doxorubicin, oxaliplatin, paclitaxel or vincristine, Wst1; assay type: cell-based, human; conditions: PC-3 cells, 72 hours; for viability at 0.4 µM: compound 0.4 μM alone; for Doxorubicin 3.5 μM: percent cell survival / Oxaliplatin 100 μM: percent cell survival / Paclitaxel 50 μM: percent cell survival / Vincristine 100 nM: percent cell survival: chemotherapy agent alone normalized to 100%
S. cerevisiae = experiment: Example I: Saccharomyces cerevisiae growth inhibition (OD 600 nm); assay type: cell-based; conditions: for IC50 / MIC: Saccharomyces cerevisiae, 18 hour incubation at 30° C., OD 600 nm, XLfit; for IC50: read-out: IC50, uM (50% inhibition of fungal growth); for MIC: read-out: MIC, uM (99% of inhibition of fungal growth)
Protocol: An overnight culture of S. cerevisiae was dilution in YPD broth to concentration of 40,000/ml and 150 μl/well was plated in 96 well plates. Compounds were then added to each well with concentration ranged from 4 to 50 μM as final concentration. The plates were inoculated at 30° C. overnight with shaking at 220 rpm and absorbance at 600 nm was read after 18 hour incubation.
• 1. One days prior to the inoculum preparation, pick a single colony of S. cerevisiae from the Sabouraud Dextrose Agar plate using the inoculum loop and inoculate into a 50 mL tube containing 10 ml of YPD growth medium • 2. Incubate at 30° C. with shaking at 220 rpm for 24 hours with loosen lid to allow air in and facilitates growth. • 3. Examine an aliquot of the culture under a microscope for yeast cell morphology and lack of bacterial contamination. • 4. Dilute the overnight culture with YPD medium at 1:30 dilution (70 ul to 2.1 ml) and count the number of cells as 4,230,000/ml. • 5. Mix 620 μl of 1:30 dilution and 64.4 ml YPD to make final concentration of 40,000/ml cells • 6. Plated 144 μl/well in four 96-well plates.
• 1. From 10 mM DMSO stock solutions, make serial dilutions of compounds to 0.1, 0.2, 0.3, 0.63 and 1.25 mM solutions • 2. Add 6 μl each of diluted compound solutions per well in duplicates. The final concentrations were 0, 4, 8, 12, 25 and 50 micromolar. • 3. Incubated all plates at 30 C for overnight (˜18 hours) with 220 rpm shaking. • 4. Read absorbance at OD600 for each plate on Spectra Max Plus plate reader. • 5. Calculate the % inhibition of each compound against the DMSO treated cell and plotted.

[5] = tested on: Candida albicans strain 3153; experiment: Example H: Candida albicans growth inhibition (OD 600 nm); assay type: cell-based
Protocol: A single colony of Candida Albicans was grown in 50 ml YPD broth overnight (19 hr). The cells were washed with PBS and 3.5×10^4 CFU/ml of C. Albicans (144 μl/well) in YPD medium were plated in 96 well plates. Test compounds were then added to each well with concentration ranged from 5 to 40 μM as final concentrations. The plates were incubated at 30° C. overnight (24 hrs) and OD at 600 nm was read at the end of incubation as an index of yeast cell density.
Part-I: Preparation of Candida albicans Cells • 1. One day prior to the inoculum preparation, pick a single colony of Candida albicans strain 3153 (lot #61794) from the Sabouraud Dextrose Agar plate using the inoculum loop and inoculate into a 250 mL flask containing 50 ml of YPD growth medium • 2. Incubate at 30° C. with shaking at 150 rpm for at least 18 hours with loosened lid to allow air in and facilitate growth. • 3. Examine an aliquot of the culture under a microscope for Candida cell morphology and lack of bacterial contamination; >95% of Candida cells should be blastoconidia. • 4. Transfer 25 ml the overnight culture into a 50-ml plastic disposable centrifuge tube, and centrifuge at 1000×g for 20 min. • 5. Discard the supernatant and wash the pellet with 4 ml of PBS at three times. Vortex and centrifuge, 1000×g for 10 min. • 6. After the third wash, dispense the pellet with 2 ml PBS and vortex. • 7. Make three 1:10 serial dilutions in sterile PBS (10^−1, 10^−2, 10^−3) from the 2 ml cell suspension using 15 ml culture tubes. The final volume in each tube is 5 ml. • 8. […] Make a 1:4 dilution in YPD medium from the 50-fold dilution of 10^−3 cell suspension for testing compounds. • The final C. albicans cell concentration for the test: 3.5×10^4 CFU/ml • 10. Plated 144 ul/well of the above dilution of cell on 96-well plates. Part-II: C. Albicans Growth Inhibition Testing with Compounds • 1. From 10 mM DMSO stock solutions, make serial dilutions of compounds to 0.13, 0.25, 0.40, 0.55, 0.75 and 1.0 mM solutions • 2. Add 6 ul each of diluted compound solutions per well in duplicates. The final concentrations were 0, 5, 10, 16, 22, 30 and 40 micromolar. • 3. Incubated all plates at 30 C for overnight (˜24 hours). • 4. Read absorbance at OD600 for each plate. • 5. Calculate the % inhibition of each compound against the DMSO treated cell.

[6] = Homo sapiens, Wst1, vehicle = 100, read-out: No Chemo: percent cell survival
[7] = compound 0.4 μM + doxorubicin 3.5 μM
[8] = compound 0.4 μM + oxaliplatin 100 μM
[9] = compound 0.4 μM + paclitaxel 50 μM
[10] = compound 0.4 μM + vincristine 100 nM

Structure (SMILES) | Viable cell percent change, Chronic/48-hour, Mean (THP-1 cells) [%] | viability at 1 µM [2] [%] | viability at 5 µM [2] [%] | viability at 0.4 µM [3] [%] | viability at 0.4 µM [4, 6] [%] | Doxorubicin 3.5 μM: percent cell survival [4, 7] [%] | Oxaliplatin 100 μM: percent cell survival [4, 8] [%] | Paclitaxel 50 μM: percent cell survival [4, 9] [%] | Vincristine 100 nM: percent cell survival [4, 10] [%] | IC50 (S. cerevisiae) [µM] | MIC (S. cerevisiae) [µM] | other results
COc1ccc(OCCCCCCCCNc2ccnc3ccccc23)cc1 [AD, N-[8-(4-Methoxyphenoxy)octyl]quinolin-4-amine] | 26.01 | 21.6 | 51.1 | 54.7 | 54.7 | 23.9 | 23.1 | 46.1 | 46.7 | – | – | activity relative to AC in the LPS-triggered THP-1 cell death assay, in words (THP-1 cells; 0.1 μM, 5-hour and 48-hour time points): equivalent activity to AC at both the 5-hour and 48-hour time points; IC50 ([1]; read-out: IC50 (concentration for 50% of inhibition)): 3.98 µM; MIC ([1]; read-out: MIC (concentration for maximum-99% of inhibition)): 45.2 µM (≈ 17.1 µg/mL)
CCCCCCOCCCCCCCCNc1ccnc2cc(C(F)(F)F)ccc12 [AY, N-[8-(Hexyloxy)octyl]-7-(trifluoromethyl)quinolin-4-amine] | 7.71 | 131 | 34.5 | – | – | – | – | – | – | 16.9 | 21.9 (≈ 9.29 µg/mL) | viability at 2.5 µM ([3]; 2.5 μM): 50.4%; viability at 2.5 µM ([4]; Homo sapiens, compound 2.5 μM alone, Wst1, vehicle = 100, read-out: No Chemo: percent cell survival): 50.4%; Doxorubicin 3.5 μM: percent cell survival ([4]; compound 2.5 μM + doxorubicin 3.5 μM): 78.9%; Oxaliplatin 100 μM: percent cell survival ([4]; compound 2.5 μM + oxaliplatin 100 μM): 92%; Paclitaxel 50 μM: percent cell survival ([4]; compound 2.5 μM + paclitaxel 50 μM): 90.1%; Vincristine 100 nM: percent cell survival ([4]; compound 2.5 μM + vincristine 100 nM): 78.7%
CCCCCCNC(=O)c1cccc(Nc2ccnc3ccccc23)c1 [BV, N-Hexyl-3-(quinolin-4-ylamino)benzamide] | 42.14 | – | – | 31.6 | – | – | – | – | – | 12.3 | 25 (≈ 8.69 µg/mL) | –
c1ccc2c(NCCCCCCCCNc3ccnc4ccccc34)ccnc2c1 [Compound AI, N^1,N^8-Di(quinolin-4-yl)octane-1,8-diamine] | 28.60 | 16.2 | 17.9 | 36.4 | 36.4 | 80.8 | 89 | 96.1 | 64.9 | 6.31 | – | MIC ([5]; Candida albicans, 3153, 24 hrs at 30° C., YPD, XLfit, read-out: MIC (uM) (99% of inhibition of fungal growth)): 56.4 µM (≈ 22.5 µg/mL); IC50 ([5]; Candida albicans, 3153, read-out: IC50 (uM) (50% inhibition of fungal growth), 24 hrs at 30° C., YPD, XLfit): 18.3 µM; inactive compound (inhibition of yeast growth, in words) (S. cerevisiae; tested 4 to 50 μM): could not reach near 100% kill at high concentration
